Structures can show the parent of a compound that is named as a salt. Where two headings read alike, the source gives them in different places.
Key:
[1] = test system: keratinocytes ("NHEK 6306", Clonetics); experiment: Contraction of collagen gel seeded with keratinocytes; format: cell-based, human; details: 1 hour after addition, area inside contracted ring, control (gel peeling alone) = 100
Procedure: • 1) After type I collagen (“Cellmatrix Type I-A”, Nitta Gelatin), “MCDB 153 medium” (Sigma Chemical Co.), 20 mM HEPES (Wako Pure Chemical Industries) and purified water were thoroughly mixed under ice cooling, 500 μL per well were added to a 24-well plate (Falcon), followed by warming at 37° C. in an incubator to effect gelation. Using MCDB 153 medium, 1 mL aliquots of keratinocytes (“NHEK 6306”, Clonetics) were seeded at 2×10^4 cells/cm^2 onto the collagen gels, respectively. Subsequent to incubation for 24 hours, the collagen gels were peeled off with a pipette tip from the culture dishes. Shortly after that, test substances prepared to a concentration as high as 100 times the final concentration were added 10 μL by 10 μL. Upon elapsed time of 1 hour after the addition, the gels were photographed using a “Minolta α707-si Camera” with “50 Macrolens”. Subsequent to development of the pictures, contracted rings were copied onto OHP sheets, the areas inside the contracted rings were determined by image analysis software, “Image-Pro PLUS” (Media Cybanetics, Inc.), and contraction ratios (%) were calculated supposing that the contraction ratio (%) of a control (gel peeling alone) was 100.

[2] = test system: human skin fibroblasts (derived from a human fore skin); experiment: Collagen gel tightening promoting ability (fibroblast-embedded collagen gel, dermis model); format: cell-based; details: for activity at 15 µM / activity at 50 µM: read-out: Average gel volume
Procedure: Measurement was conducted on the ability to promote the tightening of a fibroblast-embedded collagen gel as a dermis model. The collagen gel was prepared following the procedure reported in a publication [J. Cell Science, 102, 315 (1992) or J. Invest. Dermatol., 93, 792 (1989)]. Described specifically, a solution of HEPES (250 mM) in a 0.05 N sodium hydroxide solution, a 5-fold concentrate of DMEM (“GIBCO DMEM”, low glucose), FCS (2%, Fetal Calf Serum) and purified water were added under ice cooling to a collagen gel solution (product of Nitta Gelatin Inc., “type 1-A” (3.0 mg/mL, pH=3)), and finally, a suspension of human skin fibroblasts (derived from a human fore skin) was added. After the resulting mixture was thoroughly stirred to eliminate bubbles, 600 μL per well was added to 24-well dishes, followed by immediate warming at 37° C. in an incubator to effect gelation. Three to four hours later, 1 mL of serum-free DMEM medium was added to each of the wells, and the gels were separated at peripheries thereof from the corresponding dishes and were brought into a floating state. Eighteen hours after that, the medium was replaced with serum-free DMEM media which contained 100 to 10 μM of test substances, respectively, and incubation was conducted further for 48 hours.
Volume measurement of the gels was conducted by a weight measuring method similar to that reported in the publication [J. Cell Science, 102, 315 (1992)]. Described specifically, subsequent to immobilization with 10% formalin (4° C., 24 hours), the surface tension of water was reduced by the addition of Triton X100 (product of Wako Pure Chemical Industries) (1%), and the weights were measured.
Measurement results of relative volumes for the respective compounds as calculated supposing that the volume of the control was 100% are presented in Table 3.

[3] = test system: ear skin pores of New Zealand white rabbits; experiment: Rabbit ear skin pore size after topical application; format: in vivo; details: 2% solution in ethanol, 8 weeks
Procedure: Three of New Zealand white rabbits (male, about 2.5 kg) which ear skin pores were conspicuous were used. A 2% solution of Compound 9 (solvent: ethanol) was applied onto the left ear of each rabbit, and the solvent was applied onto the right ear of the rabbit as a control site, each on the inner side of the ala, twice a day, 150 μL each time.
Upon elapsed time of 8 weeks after the initiation of the application, the skin was collected, and the size of skin pores was measured by image analysis. Described specifically, each rabbit was sacrificed and then, his ears were collected. A scalpel was inserted into each ear sample around the applied site, and the skin was peeled off above the cartilage. At that time, care was exercised to avoid stretching of the skin. The skin was spread over a cork board and then, subjected to biopsy with a punch of 6 mm in diameter to collect the skin from six (6) locations on each ear. The collection was conducted such that skin samples were obtained from the same locations on both the left and right ears. […] On the image, the areas of the individual skin pores were measured, so that the skin pore area on each punched skin sample was calculated. An average of the skin pore areas on the six punched skin samples was recorded as the size of skin pores on the corresponding ear sample of the corresponding rabbit.

[4] = Homo sapiens, Skin fibroblast, 15 μM, 48 hours, relative volume, control = 100%
[5] = Homo sapiens, Skin fibroblast, 50 μM, 48 hours, relative volume, control = 100%
[6] = Homo sapiens, Skin fibroblast, 48 h
[7] = 15 μM, 48 hours, relative volume, control = 100%
[8] = 50 μM, 48 hours, relative volume, control = 100%

1-(2-hexyldecyl)-glycerol-3-phosphate monoarginine salt [Compound 33]
Contraction ratio (%) ([1]; 10 μM): 63.4%

octylglucopyranosidesulfate sodium salt mixture [Compound 18]
Contraction ratio (%) ([1]; 50 μM): 90.1%

CCCCCCCCCCCCCCOCC(O)COP(=O)(O)O (centres unmarked) [Compound 6, 1-tetradecylglycerol-3-phosphate disodium salt]
activity at 15 µM [2, 4]: 91%
activity at 50 µM [2, 5]: 88%

CC(C)CCCCCCCCCCCCCCCOCC(O)COP(=O)([O-])[O-].[Na+].[Na+] (centres unmarked) [Compound 9, 1-isostearylglycerol-3-phosphate disodium salt]
skin pore area ([3]; 150 μL twice a day on ear, control sites 0.022 mm^2): 0.015 mm^2
smaller in skin pore area than the control sites ([3]; twice a day, versus solvent-applied ear): about 30%
Contraction ratio (%) ([1]; 50 μM): 62.3%

CCCCCCCCCCCCCCCCCCOCC(O)COS(=O)(=O)O (centres unmarked) [Compound 2, 1-octadecylglycerol-3-sulfate sodium salt]
activity at 10 µM ([2]; Homo sapiens, Skin fibroblast, 10 μM, 48 hours, relative volume, control = 100%): 97%
activity at 30 µM ([2]; Homo sapiens, Skin fibroblast, 30 μM, 48 hours, relative volume, control = 100%): 92%

1-tetradecylglycerol-3-phosphate monoarginine salt [Compound 37]
Contraction ratio (%) ([1]; 10 μM): 63.3%

CCCCCCCCCCCCCCO[C@H]1O[C@H](COS(=O)(=O)[O-])[C@H](O)[C@H](O)[C@H]1O.[Na+] [Compound 23, 1-α-O-tetradecylgalactopyranoside-6-sulfate sodium salt]
Contraction ratio (%) ([1]; 10 μM): 60.7%

1-oleylglycerol-3-phosphate monoarginine salt [Compound 40]
Contraction ratio (%) ([1]; 10 μM): 63.0%

CCCCCCCCCCCCCCO[C@@H]1O[C@H](COS(=O)(=O)[O-])[C@H](O)[C@H](O)[C@H]1O.[Na+] [Compound 24, 1-β-O-tetradecylgalactopyranoside-6-sulfate sodium salt]
Contraction ratio (%) ([1]; 10 μM): 84.9%

CCCCCCCCCCCCO[C@@H]1O[C@H](COS(=O)(=O)[O-])[C@@H](O)[C@H](O)[C@H]1O.[Na+] [Compound 14, 1-β-O-dodecylglucopyranoside-6-sulfate sodium salt]
Contraction ratio (%) ([1]; 50 μM): 90.0%

CCCCCCCCCCCCOCCCOS(=O)(=O)[O-].[Na+] [Compound 25, 1-dodecylpropanediol-3-sulfate sodium salt]
Contraction ratio (%) ([1]; 10 μM): 88.0%

CCCCCCCCCCCCOCC(O)COP(=O)(O)O (centres unmarked) [Compound 5, 1-dodecylglycerol-3-phosphate disodium salt]
activity at 15 µM [2, 6]: 94%
activity at 50 µM [2, 6]: 83%

1-isostearylglycerol-3-phosphate monoarginine salt [Compound 31-A]
Average gel volume [2, 7]: 94%
Average gel volume [2, 8]: 79%
Contraction ratio (%) ([1]; 10 μM): 56.6%

CCCCCCCCCCCCCCCCCCOCC(O)COP(=O)([O-])[O-].[Na+].[Na+] (centres unmarked) [Compound 8, 1-octadecylglycerol-3-phosphate disodium salt]
activity at 15 µM [2, 6]: 93%
activity at 50 µM [2, 6]: 77%
Contraction ratio (%) ([1]; 50 μM): 77.0%

dodecylglucopyranosidephosphate disodium salt mixture [Compound 27]
Contraction ratio (%) ([1]; 10 μM): 67.0%

1-hexadecylglycerol-3-phosphate monoarginine salt [Compound 38]
Contraction ratio (%) ([1]; 10 μM): 81.4%

CC(C)CCCCCCCCCCCCCCCC(O)[C@@H](O)[C@@H](O)[C@H](O)[C@@H](CO)OS(=O)(=O)[O-].[Na+] (some centres unmarked) [Compound 30, 1-isostearylmannitol-5-sulfate sodium salt]
Contraction ratio (%) ([1]; 10 μM): 56.8%

1-octadecylglycerol-3-phosphate monoarginine salt [Compound 39]
Contraction ratio (%) ([1]; 10 μM): 70.2%

1-[2-(1,3,3-trimethylbutyl)-5,7,7-trimethyloctyl]-glycerol-3-phosphate monoarginine salt [Compound 35]
Contraction ratio (%) ([1]; 10 μM): 66.9%

1-dodecylpropanediol-3-phosphate disodium salt [Compound 26]
Contraction ratio (%) ([1]; 1 μM): 73.5%

1-(2-heptylundecyl)-glycerol-3-phosphate monoarginine salt [Compound 32]
Average gel volume [2, 7]: 92%
Average gel volume [2, 8]: 75%
Contraction ratio (%) ([1]; 10 μM): 52.2%

1-dodecylglycerol-3-phosphate monoarginine salt [Compound 36]
Contraction ratio (%) ([1]; 10 μM): 71.3%

CCCCCCCCCC(CCCCCCC)COCC(O)COP(=O)([O-])[O-].[Na+].[Na+] (centres unmarked) [Compound 28, 1-(2-heptylundecyl)glycerol-3-phosphate disodium salt]
Contraction ratio (%) ([1]; 10 μM): 48.3%

1-(2-octyldodecyl)-glycerol-3-phosphate monoarginine salt [Compound 34]
Contraction ratio (%) ([1]; 10 μM): 67.3%

CC(C)CCCCCCCCCCCCCCCC(O)[C@@H](O)[C@@H](O)[C@H](O)[C@@H](CO)OP(=O)([O-])[O-].[Na+].[Na+] (some centres unmarked) [Compound 29, 1-isostearylmannitol-5-phosphate disodium salt]
Contraction ratio (%) ([1]; 10 μM): 53.3%

1-(2-dodecylhexadecyl)-glycerol-3-phosphate monoarginine salt [Compound 42]
Contraction ratio (%) ([1]; 10 μM): 87.7%

CCCCCCCCCCCCCCCCOCC(O)COP(=O)(O)O (centres unmarked) [Compound 7, 1-hexadecylglycerol-3-phosphate disodium salt]
activity at 15 µM [2, 4]: 94%
activity at 50 µM [2, 5]: 79%

1-isostearylglycerol-3-phosphate monoarginine salt [Compound 31-B]
Contraction ratio (%) ([1]; 10 μM): 56.7%

1-(2-decyltetradecyl)glycerol-3-phosphate monoarginine salt [Compound 41]
Contraction ratio (%) ([1]; 10 μM): 87.3%

From patent publication US7968607B2, “Skin pore minimizers and skin elasticity improvers” (Koa Corporation, priority 2000, dated 2011)
